Experimental data from patent US4861889A, “3-(2,3,4,5,6-pentafluorophenoxy)-8-azabicyclo[3.2.1]octanes” (Hoechst-Roussel Pharmaceuticals, Inc., priority 1988, dated 1989).
Structures can show the parent of a compound that is named as a salt.

Assays:
[1] = phenyl-p-benzoquinone writhing assay (analgesic activity); format: in vivo, male mice (Charles River, CD-1); conditions: Mus musculus, sc, mice; for inhibition in vivo at 20 mg/kg: s.c., read-out: % Inhibition of writhing at a screening dose of 20 mg/kg, s.c.
Experimental: The compounds of this invention are useful as analgesic agents due to their ability to alleviate pain in mammals. The procedure employed to determine analgetic utility is a modification of the phenyl-p-benzoquinone writhing assay in mice, a standard assay for analgesia [Proc. Soc. Exptl. Bio. Med., 95, 729 (1957)]. Pursuant to the modified procedure phenyl-p-benzoquinone (Eastman, 12.5 mg) is dissolved in 5 ml of 95% ethanol and the solution is diluted to a total volume of 100 ml with distilled water. The solution is administered to the subject mice intraperitoneally at a dose of 10 ml per kg of body weight. A characteristic "writhe"an inward rotation of one or more feet with twisting and turning of the trunk, drawing in of the abdominal wall, lordosis and arching of the back, is produced.
A total of 28 male mice (Charles River, CD-1), weighing 18 to 30 grams, are employed for a time response. The subject animals receive food and water ad libitum. Test compounds are dissolved in distilled water, or suspended in distilled water containing one drop of a suitable surfactant, such as Tween-80.
Four groups of five animals (20 animals) are given the test compound subcutaneously (s.c.) or orally (p.o.) at 15, 30, 45 and 60 minutes prior to administration of the phenyl-p-quinone. A control group (2 animals per group) receive an equal volume of the vehicle. After the administration of the phenyl-p-quinone, the mice are place separately in one liter beakers, and after five minutes, are observed for ten minutes. The number of writhes for each animal is recorded. The following formula is used to compute the percent inhibition: [formula]
The time period with the greatest percent of inhibition is considered the peak time.

[2] = L-5-hydroxytryptophan (5-HTP) potentiation assay, antidepressant activity; format: in vivo, male Wistar rats; conditions: Rattus norvegicus, ip, read-out: 5-HTP Potentiation ED50
Experimental: The compounds of this invention are also useful as antidepressants by virtue of their ability to elicit an antidepressant response in mammals. Antidepressant activity is determined by the L-5-hydroxytryptophan potentiation assay in rats described in Brit. J. Pharmacol., 20, pp. 106-120 (1963) and J. Med. Chem., 24, 74 (1980).
Groups of six male Wistar rats (150-200 grams each) are used in this assay. Pursuant to this procedure pargyline hydrochloride is prepared and administered four hours before testing by subcutaneous injection at 75 mg/kg in 1% saline and at dosage volume of 1.0 ml/kg. Thirty minutes before testing, drugs are prepared and dosed using distilled water and, if insoluble, a suitable surfactant is added. Control groups receive vehicle. Drugs are routinely administered intraperitoneally at a dosage volume of 10 ml/kg. L-5-hydroxytryptophan (5-HTP) is prepared at 1.0 mg/kg in distilled water and is administered intraperioneally in volumes proportional to 10 ml/kg. Drugs are administered in a randomized manner and 15 minutes post 5-HTP treatment, the animals are observed for 15 minutes.
Potentiation is expressed as normalized percent potentiation relative to vehicle control.

[3] = antihypertensive activity, indirect tail cuff method (SHR); format: in vivo, spontaneous hypertensive rat; conditions: treated three days, drop measured on third day, decrease in mean arterial blood pressure
Experimental: The compounds of this invention are also useful as antihypertensive agents due to their ability to depress blood pressure in mammals. Antihypertensive activity is measured in the spontaneous hypertensive rat by the indirect tail cuff method described in "Methods in Pharmacology", A. Schwartz, Ed., Vol. I, Appleton-Century Crofts, New York, N.Y., 1971, p. 135. In this procedure a group of five animals is treated orally for three days with the test compound in relation to a control group of the same number. The drop in blood pressure is measured on the third day following administration. The antihypertensive activities of representative compounds, expressed as a decrease in mean arterial blood pressure (in mm Hg), are given in Table 3 along with the activity of a standard compound.

[4] = Metrazol lethality assay (MTZ), anticonvulsant activity; format: in vivo, male mice (Charles River, CD-1); conditions: Mus musculus, po, mice, protection against Metrazol lethality
Experimental: (§1) The compounds of this invention are also useful as anticonvulsants due to their anticonvulsant activity in mammals. Anticonvulsant activity is measured in male mice using the supramaximal electroshock (SES) assay described in Arch. Int. Pharmacodyn. 92, pp. 97-107, (1952) and the metrazol lethality assay (MTZ) described in J. Pharmacol. Exp. Ther., 81, 402 (1944).
Groups of male mice (Charles River, CD-1), weighing 18 to 30 grams are employed in the Metrazol lethality assay. Test compounds are dissolved in distilled water or if insoluble, suspended in water, to which a surfactant, such as Tween-80 is added. The test compounds are administered orally, the administered dose being dissolved or suspended in 10 ml of solution or suspension per kg of animal body weight. Control animals (2 mice/group) receive water or water and Tween-80, i.e., the vehicle for administration of the test compound. Metrazol (pentylenetetrazol) is dissolved in water (concentration 225 mg of Metrazol/10 ml of solution), and the solution is administered subcutaneously to groups of five animals each at one or more time intervals of 15, 30, 60, 90, or 120 minutes after administration of the test compound. The number of animal alive 15 minutes after treatment with Metrazol is determined and recorded. The following formula is employed to calculate the percent protection against Metrazol lethality. [formula] […]

[5] = supramaximal electroshock (SES) assay, anticonvulsant activity; format: in vivo, male mice (Charles River, CD-1); conditions: Mus musculus, ip, mice
Experimental: as §1
Groups of male mice (Charles River, CD-1) weighing 18 to 30 g are employed in the SES assay. Test compounds are dissolved in distilled water, or if insoluble, suspended in water containing one drop of a surfactant, such as Tween-80. Test compounds are generally administered intraperitoneally at a dose of 10 ml of solution, or suspension, per kg of animal body weight. The output terminals of an A.C. shocker, which delivers 206 volts rms for 300 msec, are placed across the animals' eyes, an electrode paste coating assuring contact of the terminals with the eyes. The test compound is administered and thereafter the subject animals are shocked.
Protection is expressed as normalized percent inhibition relative to vehicle control. [formula] A time response is carried out using 6 animals per group. Animals are tested at 30, 60 and 120 minutes post drug. Additional time periods are tested if indicated by previous tests. A dose range determination is generally reserved for those compounds which inhibit convulsions by greater than about 45-55% at the screening dose employed at the time the test was performed. When the peak activity time has been determined, a dose response is initiated, using 10 animals per group at that time period.
The anticonvulsant activity of several of the compounds of this invention as per the SES and MTZ assay procedures is provided in Table 2.

Cc1[nH]c2ccccc2c1CCCN1[C@@H]2CC[C@H]1C[C@@H](Oc1c(F)c(F)c(F)c(F)c1F)C2 [(ENDO)-3-(2,3,4,5,6-PENTAFLUOROPHENOXY)-8-[3-(2-METHYLINDOL-3-YL)PROPYL]-8- AZABICYCLO[3.2.1]OCTANEHYDROCHLORIDE]
inhibition in vivo at 20 mg/kg [1]: 39%

COc1cc2onc(CCCN3[C@@H]4CC[C@H]3C[C@@H](Oc3c(F)c(F)c(F)c(F)c3F)C4)c2cc1OC [(ENDO)-3-(2,3,4,5,6-PENTAFLUOROPHENOXY)-8-[(5,6-DIMETHOXY-1,2-BENZISOXAZOL- 3-YL)PROPYL]-8-AZABICYCLO[3.2.1]OCTANEHYDROCHLORIDE]
inhibition in vivo at 20 mg/kg [1]: 37%
ED50 [2]: 21.1 mg/kg

Fc1ccc2c(CCCN3[C@@H]4CC[C@H]3C[C@@H](Oc3c(F)c(F)c(F)c(F)c3F)C4)noc2c1 [(ENDO)-8-[3-(6-FLUORO-1,2-BENZISOXAZOL-3-YL)PROPYL]-3-(2,3,4,5,6-PENTAFLUOROPHENOXY)-8-AZABICYCLO[3.2.1OCTANE HYDROCHLORIDE]
inhibition in vivo at 20 mg/kg [1]: 45%

Cc1[nH]c2ccccc2c1CCCN1[C@@H]2CC[C@H]1C[C@H](Oc1c(F)c(F)c(F)c(F)c1F)C2 [(EXO)-3-(2,3,4,5,6-PENTAFLUOROPHENOXY)-8-[3-(2-METHYLINDOL-3-YL)PROPYL]-8-AZABICYCLO[3.2.1]OCTANE HYDROCHLORIDE]
inhibition in vivo at 20 mg/kg [1]: 42%

Fc1ccc2c(CCCN3[C@@H]4CC[C@H]3C[C@H](Oc3c(F)c(F)c(F)c(F)c3F)C4)noc2c1 [(EXO)-8-[3-(6-FLUORO-1,2-BENZISOXAZOL-3-YL)PROPYL]-3-(2,3,4,5,6-PENTAFLUOROPHENOXY)-8-AZABICYCLO[3.2.1]OCTANE HYDROCHLORIDE]
inhibition in vivo at 20 mg/kg [1]: 49%
mm dec. in BP at 50 mg/kg p.o. [3]: 48 mm

COc1ccccc1N1CCN(CCCN2[C@@H]3CC[C@H]2C[C@@H](Oc2c(F)c(F)c(F)c(F)c2F)C3)CC1 [(endo)-3-(2,3,4,5,6-pentafluorophenoxy)-8-[3-[4-(2-methoxyphenyl)piperazin-1-yl]propyl]-8-azabicyclo[3.2.1]octane]
inhibition in vivo at 20 mg/kg [1]: 55%

CP(C)(=O)CN1[C@@H]2CC[C@H]1C[C@@H](Oc1c(F)c(F)c(F)c(F)c1F)C2 [(endo)-3-(2,3,4,5,6-pentafluorophenoxy)-8-[(dimethylphosphinyl)methyl]-8-azabicyclo[3.2.1]octane]
ED50 [2]: 10.8 mg/kg

Fc1c(F)c(F)c(O[C@H]2C[C@H]3CC[C@@H](C2)N3)c(F)c1F [(endo)-3-(2,3,4,5,6-pentafluorophenoxy)-8-azabicyclo[3.2.1]octane hydrochloride]
ED50 [2]: 15.6 mg/kg

CN1[C@@H]2CC[C@H]1C[C@](Oc1c(F)c(F)c(F)c(F)c1F)(c1ccccc1)C2 [(endo)-3-(2,3,4,5,6-pentafluorophenoxy)-8-methyl-3-phenyl-8-azabicyclo[3.2.1]octane hydrochloride]
inhibition in vivo at 20 mg/kg [1]: 42%

CN1[C@@H]2CC[C@H]1C[C@@H](Oc1c(F)c(F)c(F)c(F)c1F)C2 [(endo)-3-(2,3,4,5,6-pentafluorophenoxy)-8-methyl-8-azabicyclo[3.2.1]octane]
ED50 [2]: 16.2 mg/kg

NC(=O)N1[C@@H]2CC[C@H]1C[C@@H](Oc1c(F)c(F)c(F)c(F)c1F)C2 [(endo)-8-aminocarbonyl-3-(2,3,4,5,6-pentafluorophenoxy)-8-azabicyclo[3.2.1]octane]
inhibition in vivo at 20 mg/kg [1]: 38%
ED50 [4]: 12.7 mg/kg
ED50 [5]: 25.2 mg/kg

CN(C)C(=O)N1[C@@H]2CC[C@H]1C[C@H](Oc1c(F)c(F)c(F)c(F)c1F)C2 [(exo)-3-(2,3,4,5,6-pentafluorophenoxy)-8-[(N,N-dimethylamino)carbonyl]-8-azabicyclo[3.2.1]octane]
inhibition in vivo at 20 mg/kg [1]: 39%

Fc1c(F)c(F)c(O[C@@H]2C[C@H]3CC[C@@H](C2)N3)c(F)c1F [(exo)-3-(2,3,4,5,6-pentafluorophenoxy)-8-azabicyclo[3.2.1]octane]
ED50 [2]: 8.4 mg/kg

NC(=O)N1[C@@H]2CC[C@H]1C[C@H](Oc1c(F)c(F)c(F)c(F)c1F)C2 [(exo)-8-(aminocarbonyl)-3-(2,3,4,5,6-pentafluorophenoxy)-8-azabicyclo[3.2.1]octane]
inhibition in vivo at 20 mg/kg [1]: 32%

CC(=O)N1[C@@H]2CC[C@H]1C[C@H](Oc1c(F)c(F)c(F)c(F)c1F)C2 [(exo)-8-acetyl-3-(2,3,4,5,6-pentafluorophenoxy)-8-azabicyclo[3.2.1]octane]
ED50 [4]: 41.9 mg/kg

CC(=O)Oc1ccccc1C(=O)O [Asprin, reference compound]
ED50 ([1]; column head s.c., read-out: ED50 (calculated dosage at which a 50% inhibition of writhing is achieved)): 32.8 mg/kg

CN(C)CCC=C1c2ccccc2CCc2ccccc21 [amitriptyline, reference compound]
ED50 ([2]; rats): 7.1 mg/kg

CN1[C@@H]2CC[C@H]1C[C@@H](Oc1c(F)c(F)c(F)c(F)c1F)C2 [endo-3-(2,3,4,5,6-pentafluorophenoxy)-8-methyl-8-azabicyclo[3.2.1]octane oxalate]
inhibition in vivo at 20 mg/kg [1]: 49%

CC(=O)N1[C@@H]2CC[C@H]1C[C@@H](Oc1c(F)c(F)c(F)c(F)c1F)C2 [endo-8-acetyl-3-(2,3,4,5,6-pentafluorophenoxy)-8-azabicyclo[3.2.1]octane]
ED50 [5]: 35.1 mg/kg

CN1[C@@H]2CC[C@H]1C[C@H](Oc1c(F)c(F)c(F)c(F)c1F)C2 [exo-3-(2,3,4,5,6-pentafluorophenoxy)-8-methyl-8-azabicyclo[3.2.1]octane hydrochloride]
inhibition in vivo at 20 mg/kg [1]: 43%
ED50 [2]: 13.4 mg/kg

N=C(N)NCCN1CCCCCCC1 [guanethidine, reference compound]
mm dec. in BP at 50 mg/kg p.o. [3]: 20 mm

CCC1(c2ccccc2)C(=O)NC(=O)NC1=O [phenobarbital, reference compound]
ED50 [5]: 8.4 mg/kg
